The test deals with Recombinant human AMPK proteins (α1β1γ1, α2β1γ1, α1(1-335), α1(1-394) or α2(1-394)). Briefly: Scintillation Proximity Assay (SPA) of AMPK activation. The test is classed as biochemical. As to conditions: activator concentration for 50% of maximal enzyme activity; 50 nM recombinant AMPK, 2 μM ATP, 30° C., 2 hr. The procedure: Recombinant human AMPK α1β1γ1, α2β1γ1 or AMPK α subunit truncations α1(1-335), α1(1-394) and α2(1-394) were constructed, expressed and purified as described previously (Pang, T., Zhang, Z. S., Gu, M., Qiu, B. Y., Yu, L. F., Cao, P. R., Shao, W., Su, M. B., Li, J. Y., Nan, F. J., and Li, J. (2008)). Rat liver AMPK heterotrimer enzyme was obtained from Upstate (Billerica, Mass., U.S.A.).
Scintillation Proximity Assay
Before the Scintillation Proximity Assay (SPA) assay, 200 nM recombinant AMPK proteins (α1β1γ1, α2β1γ1, α1(1-335), α1(1-394) or α2(1-394)) were fully phosphorylated as described previously (Pang et al., 2008). SPA reactions were performed in 96-well plates at a final volume of 501 containing 20 mM Tris-HCl pH 7.5, 5 mM MgCl2, 1 mM DTT, 2 μM biotin-SAMS, 2 μM ATP, 0.2 μCi/well [γ-^33P]ATP, and various amount of activator. Reactions were initiated by the addition of 50 nM recombinant AMPK proteins to the reaction solutions and incubated at 30° C. for 2 hr. After that, reactions were terminated by the addition of 401 stop solution containing 80 μg streptavidin-coated SPA beads per well, 50 mM EDTA, 0.1% Triton X-100 in PBS, pH 7.5 and incubated for 1 hr. Finally, a 160 ul suspension solution containing 2.4 M CsCl, 50 mM EDTA, and 0.1% Triton X-100 in PBS (pH 7.5) was added to the reaction solution to suspend SPA beads completely. SPA signals were determined with a Wallac MicroBeta plate counter (PerkinElmer) 30 min later for calculation of the amount of product formed. The amount of products formed in 2 hr was plotted against activator concentrations to determine the effective concentration of the activator (EC50) required for 50% of maximal enzyme activity.
Compounds as described above have EC50 values between 0.5 uM and 50 uM, preferred compounds have EC50 values between 0.5 uM and 10 uM, particularly preferred compounds have EC50 values between 0.5 uM and 1 uM.

Among the data in patent US8778973B2, “Alkene oxindole derivatives” (Hoffmann-La Roche Inc., priority 2009, dated 2014) are EC50 values, retold here.

Structures are written as SMILES.

As for `CCOC(=O)c1cccc(N2C(=O)/C(=C(\C)c3ccccc3)c3ccccc32)c1` [Example 1, 3-[2-Oxo-3-(1-phenyl-ethylidene)-2,3-dihydro-indol-1-yl]-benzoic acid ethyl ester], the EC50 was 2210 nM.
On to `COC(=O)Cc1cccc(N2C(=O)/C(=C(\C)c3ccccc3)c3ccccc32)c1` [Example 2, (3-{2-Oxo-3-[1-phenyl-eth-(E)-ylidene]-2,3-dihydro-indol-1-yl}-phenyl)-acetic acid methyl ester], for which the EC50 is 1490 nM.
With `COC(=O)c1cc(N2C(=O)/C(=C(\C)c3ccccc3)c3ccccc32)ccc1C` [Example 3, 2-Methyl-5-{2-oxo-3-[1-phenyl-eth-(E)-ylidene]-2,3-dihydro-indol-1-yl}-benzoic acid methyl ester] the figure was 5610 nM.
`C/C(=C1\C(=O)N(CC(=O)O)c2ccccc21)c1ccccc1` [Example 4, [2-Oxo-3-(1-phenyl-ethylidene)-2,3-dihydro-indol-1-yl]-acetic acid]: the EC50 was 5250 nM.
`COC(=O)c1cccc(CN2C(=O)/C(=C(\c3ccccc3)c3ccc(Cl)cc3)c3ccccc32)c1` [Example 5, 3-((3-((4-Chlorophenyl)(phenyl)meth-(E)-ylene)-2-oxoindolin-1-yl)methyl)benzoic acid methyl ester]: the EC50 turned out to be 2300 nM.
Regarding `COC(=O)c1cccc(CN2C(=O)/C(=C(\c3ccccc3)c3ccc(Cl)cc3)c3cccc(F)c32)c1` [Example 6, 3-{3-[1-(4-Chloro-phenyl)-1-phenyl-meth-(E)-ylidene]-7-fluoro-2-oxo-2,3-dihydro-indol-1-ylmethyl}-benzoic acid methyl ester], the concentration for a half-maximal effect (EC50) is 1510 nM.
Turning to `COC(=O)c1cccc(CN2C(=O)C(=C(c3ccccc3)c3ccccc3)c3ccccc32)c1` [Example 7, 3-(3-Benzhydrylidene-2-oxo-2,3-dihydro-indol-1-ylmethyl)-benzoic acid methyl ester], the concentration for a half-maximal effect (EC50) was 1540 nM.
As for `COC(=O)c1cccc(CN2C(=O)/C(=C(\c3ccccc3)c3ccc(OC)cc3)c3ccccc32)c1` [Example 8, 3-{3-[1-(4-Methoxy-phenyl)-1-phenyl-meth-(E)-ylidene]-2-oxo-2,3-dihydro-indol-1-ylmethyl}-benzoic acid methyl ester], the figure is 6470 nM.
As for `COC(=O)c1cccc(CN2C(=O)/C(=C(\c3ccccc3)c3ccc(C)cc3)c3ccccc32)c1` [Example 9, 3-{2-Oxo-3-[1-phenyl-1-p-tolyl-meth-(E)-ylidene]-2,3-dihydro-indol-1-ylmethyl}-benzoic acid methyl ester], the figure is 2160 nM; as for `COC(=O)c1cccc(CN2C(=O)/C(=C(/c3ccc(Cl)cc3)c3ccccc3OC)c3ccccc32)c1` [Example 10, 3-{3-[1-(4-Chloro-phenyl)-1-(2-methoxy-phenyl)-meth-(Z)-ylidene]-2-oxo-2,3-dihydro-indol-1-ylmethyl}-benzoic acid methyl ester], 4440 nM.
Consider `COC(=O)c1cccc(CN2C(=O)/C(=C(\c3ccccc3)c3ccc(C#N)cc3)c3ccccc32)c1` [Example 11, 3-{3-[1-(4-Cyano-phenyl)-1-phenyl-meth-(E)-ylidene]-2-oxo-2,3-dihydro-indol-1-ylmethyl}-benzoic acid methyl ester], for which the 50% effective concentration (EC50) was 3110 nM.
Turning to `COC(=O)c1cccc(CN2C(=O)/C(=C(\c3ccccc3)c3ccc(C(F)(F)F)cc3)c3ccccc32)c1` [Example 12, 3-{2-Oxo-3-[1-phenyl-1-(4-trifluoromethyl-phenyl)-meth-(E)-ylidene]-2,3-dihydro-indol-1-ylmethyl}-benzoic acid methyl ester], the concentration giving a half-maximal response (EC50) is 5340 nM.
Take `COC(=O)c1cccc(CN2C(=O)/C(=C(\c3ccccc3)c3ccc(F)c(Cl)c3)c3ccccc32)c1` [Example 13, 3-{3-[1-(3-Chloro-4-fluoro-phenyl)-1-phenyl-meth-(E)-ylidene]-2-oxo-2,3-dihydro-indol-1-ylmethyl}-benzoic acid methyl ester]: the EC50 was found to be 1860 nM.
With `COC(=O)c1cccc(CN2C(=O)/C(=C(\c3ccccc3)c3cc(OC)c(OC)c(OC)c3)c3ccccc32)c1` [Example 14, 3-{2-Oxo-3-[1-phenyl-1-(3,4,5-trimethoxy-phenyl)-meth-(E)-ylidene]-2,3-dihydro-indol-1-ylmethyl}-benzoic acid methyl ester], the EC50 was 4340 nM.
As for `COC(=O)c1cccc(CN2C(=O)/C(=C(\c3ccccc3)c3ccc(F)c(F)c3)c3ccccc32)c1` [Example 15, 3-{3-[1-(3,4-Difluoro-phenyl)-1-phenyl-meth-(E)-ylidene]-2-oxo-2,3-dihydro-indol-1-ylmethyl}-benzoic acid methyl ester], the figure is 2470 nM.
As for `COC(=O)c1cccc(CN2C(=O)/C(=C(\c3ccccc3)c3cccc(Cl)c3)c3ccccc32)c1` [Example 16, 3-{3-[1-(3-Chloro-phenyl)-1-phenyl-meth-(E)-ylidene]-2-oxo-2,3-dihydro-indol-1-ylmethyl}-benzoic acid methyl ester], the figure is 1530 nM; as for `COC(=O)c1cccc(CN2C(=O)/C(=C(\c3ccccc3)c3ccccc3Cl)c3ccccc32)c1` [Example 17, 3-{3-[1-(2-Chloro-phenyl)-1-phenyl-meth-(E)-ylidene]-2-oxo-2,3-dihydro-indol-1-ylmethyl}-benzoic acid methyl ester], 2340 nM; as for `COC(=O)c1cccc(CN2C(=O)/C(=C(\c3ccccc3)c3ccc(Cl)cc3)c3cc(F)ccc32)c1` [Example 18, 3-{3-[1-(4-Chloro-phenyl)-1-phenyl-meth-(E)-ylidene]-5-fluoro-2-oxo-2,3-dihydro-indol-1-ylmethyl}-benzoic acid methyl ester], 5660 nM.
In the case of `COC(=O)c1cccc(CN2C(=O)/C(=C(\c3ccccc3)c3cc(Cl)cc(Cl)c3)c3ccccc32)c1` [Example 19, 3-{3-[1-(3,5-Dichloro-phenyl)-1-phenyl-meth-(E)-ylidene]-2-oxo-2,3-dihydro-indol-1-ylmethyl}-benzoic acid methyl ester], the EC50 was 1000 nM.
Turning to `COC(=O)c1cccc(CN2C(=O)/C(=C(\c3ccccc3)c3cccc(Cl)c3Cl)c3ccccc32)c1` [Example 20, 3-{3-[1-(2,3-Dichloro-phenyl)-1-phenyl-meth-(E)-ylidene]-2-oxo-2,3-dihydro-indol-1-ylmethyl}-benzoic acid methyl ester], the EC50 came to 1760 nM.
With `COC(=O)c1ccc(CN2C(=O)/C(=C(\c3ccccc3)c3ccc(Cl)cc3)c3ccccc32)cc1` [Example 21, 4-{3-[1-(4-Chloro-phenyl)-1-phenyl-meth-(E)-ylidene]-2-oxo-2,3-dihydro-indol-1-ylmethyl}-benzoic acid methyl ester] the figure was 6070 nM; with `COC(=O)c1cccc(CN2C(=O)/C(=C(\c3ccccc3)c3ccc(Cl)cc3)c3cc(OC)ccc32)c1` [Example 22, 3-{3-[1-(4-Chloro-phenyl)-1-phenyl-meth-(E)-ylidene]-5-methoxy-2-oxo-2,3-dihydro-indol-1-ylmethyl}-benzoic acid methyl ester], 4130 nM.
With `COC(=O)c1cccc(CN2C(=O)/C(=C(\c3ccccc3)c3ccccc3Br)c3ccccc32)c1` [Example 23, 3-{3-[1-(2-Bromo-phenyl)-1-phenyl-meth-(E)-ylidene]-2-oxo-2,3-dihydro-indol-1-ylmethyl}-benzoic acid methyl ester], the concentration giving a half-maximal response (EC50) is 6970 nM.
Regarding `COC(=O)c1cccc(CN2C(=O)/C(=C(\c3ccccc3)c3cc(C(F)(F)F)ccc3Cl)c3ccccc32)c1` [Example 24, 3-{3-[1-(2-Chloro-5-trifluoromethyl-phenyl)-1-phenyl-meth-(E)-ylidene]-2-oxo-2,3-dihydro-indol-1-ylmethyl}-benzoic acid methyl ester], the 50% effective concentration (EC50) is 4820 nM.
As for `COC(=O)c1cccc(CN2C(=O)/C(=C(\c3ccccc3)c3ccc(Cl)cc3)c3c(F)cccc32)c1` [Example 25, 3-{3-[1-(4-Chloro-phenyl)-1-phenyl-meth-(E)-ylidene]-4-fluoro-2-oxo-2,3-dihydro-indol-1-ylmethyl}-benzoic acid methyl ester], the figure is 2730 nM; as for `COC(=O)c1cccc(CN2C(=O)/C(=C(\c3ccccc3)c3ccc(Cl)cc3)c3ccc(F)cc32)c1` [Example 26, 3-{3-[1-(4-Chloro-phenyl)-1-phenyl-meth-(E)-ylidene]-6-fluoro-2-oxo-2,3-dihydro-indol-1-ylmethyl}-benzoic acid methyl ester], 1250 nM.
